Two molecules from ChEMBL document CHEMBL1201862, “PubChem BioAssay data set” (2004) can be followed below.

Among the test systems are OVCAR-5; A498; OVCAR-3; BT-549; HCT-116; HCT-15; CCRF-CEM; SF-295; MCF7; A549; OVCAR-4; SR; EKVX; LOX IMVI; SK-MEL-5; RPMI-8226; HT-29; M14; SF-268; Hs-578T.
Experiment in all cases: inhibition of tumour cell growth, NCI panel, 48 h

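Where inhibition never reached the appropriate level, the endpoint shown equals the highest concentration tested. Otherwise, values were interpolated linearly from a five-concentration, 48-hour dose response in 96-well plates. Abbreviation: GI50, concentration required for 50% inhibition of growth.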 Calls of active or inactive are those of the source. Cut-off read from the data, not from the text of the source: active = GI50 up to about 1.1 µM and inactive = higher.

For `C[C@]12CC[C@H]3[C@@H](CCC4=CC(=O)C=C[C@@]43OC(=O)C(F)(F)F)[C@@H]1CCC2=O`, the GI50 in the experiment with OVCAR-5 is > 100 µM (inactive); in the experiment with A498, > 100 µM (inactive); in the experiment on OVCAR-3, > 100 µM (inactive); with BT-549, > 100 µM (inactive); with HCT-116 it was > 34.7 µM (inactive); in the experiment with HCT-15, more than 100 µM. In addition, the GI50 is > 100 µM (inactive) with CCRF-CEM; > 100 µM (inactive) in the experiment on SF-295; > 100 µM (inactive) with MCF7; > 52.6 µM (inactive) in the experiment on A549; > 100 µM (inactive) in the experiment with OVCAR-4; > 100 µM (inactive) with SR. In addition, the GI50 in the experiment on EKVX, in the experiment on LOX IMVI, in the experiment on SK-MEL-5, with RPMI-8226, in the experiment with HT-29 and in the experiment on M14 was > 100 µM (inactive) throughout. Further, the GI50 with SF-268 and in the experiment on Hs-578T was > 100 µM (inactive) each time.

Turning to `CCN(CC)c1ccc2cc(C(N)=O)/c(=N/c3ccc(F)cc3)oc2c1`, the GI50 in the experiment on OVCAR-5 was > 100 µM (inactive); with A498, 39.4 µM (inactive); in the experiment with OVCAR-3 it was > 100 µM (inactive); in the experiment with BT-549, > 100 µM (inactive); in the experiment with HCT-116, 5.07 µM (inactive); in the experiment with HCT-15 it was 59.8 µM. Besides, the GI50 in the experiment on CCRF-CEM was > 100 µM (inactive); in the experiment with SF-295, 10.3 µM (inactive); in the experiment on MCF7, 51.4 µM (inactive); with A549, 91 µM (inactive); with OVCAR-4, 41.3 µM (inactive); in the experiment on SR, 4.65 µM (inactive). The GI50 in the experiment with EKVX was 81.5 µM (inactive); in the experiment with LOX IMVI, 46.1 µM (inactive); in the experiment with SK-MEL-5, > 100 µM (inactive); in the experiment on RPMI-8226 it was > 100 µM (inactive); in the experiment on HT-29 it was 6.95 µM (inactive); with M14 it was > 100 µM (inactive). For the same molecule, the GI50 in the experiment on SF-268 is 39.5 µM (inactive); in the experiment on Hs-578T it was 47.9 µM (inactive).
